Measured values: patent US8937084B2, “Nitrogen containing morphinan derivatives and the use thereof” (Purdue Pharma L.P., priority 2012, dated 2015)

Tests used:
[1] = target: T1, κ opioid receptor (Homo sapiens (Human), UniProt P41145); assay: κ-opioid receptor [35S]GTPγS functional assay, U-2 OS cells; format: biochemical; conditions: for EC50: GTPγS; for Emax: relative to U69,593
Protocol: (§1) κ-Opioid Receptor Functional Assay Procedures: Functional [^35S]GTPγS binding assays were conducted as follows. κ opioid receptor membrane solution was prepared by sequentially adding final concentrations of 0.026 μg/μl κ membrane protein (in-house), 10 μg/mL saponin, 3 μM GDP and 0.20 nM [^35S]GTPγS to binding buffer (100 mM NaCl, 10 mM MgCl2, 20 mM HEPES, pH 7.4) on ice. The prepared membrane solution (190 μl/well) was transferred to 96-shallow well polypropylene plates containing 10 μl of 20× concentrated stock solutions of agonist prepared in DMSO. Plates were incubated for 30 min at a temperature of about 25° C. with shaking. Reactions were terminated by rapid filtration onto 96-well Unifilter GF/B filter plates (Perkin Elmer, Shelton, Conn.) using a 96-well tissue harvester (Packard) and followed by three filtration washes with 200 μl ice-cold binding buffer (10 mM NaH2PO4, 10 mM Na2HPO4, pH 7.4). Filter plates were subsequently dried at 50° C. for 2-3 hours. Fifty μl/well scintillation cocktail (Perkin Elmer, Shelton, Conn.) was added and plates were counted in a Packard Top-Count for 1 min/well.
(§2) κ-Oploid Receptor Functional Data: κ GTP EC50 is the concentration of a compound providing 50% of the maximal response for the compound at a K receptor.
(§3) κ GTP Emax (%) is the maximal effect elicited by a compound relative to the effect elicited by U69,593.
(§4) The following TABLE 3 provides results on the activity response of certain Compounds of the Invention at the μ- and κ-opioid receptors determined as described above using U-2 OS cells.

[2] = target: T2, μ-opioid receptor (Homo sapiens (Human), UniProt P35372); assay: μ-opioid receptor [35S]GTPγS functional assay, HEK-293 or CHO cells; format: biochemical; conditions: for EC50: GTPγS; for Emax: relative to DAMGO
Protocol: (§5) μ-Opioid Receptor Functional Assay Procedures: [^35S]GTPγS functional assays were conducted using freshly thawed μ-receptor membranes prepared in-house from a cell line expressing recombinant μ opioid receptor in a HEK-293, CHO or U-2 OS cell background, or purchased from a commercial source (Perkin Elmer, Shelton, Conn.; or DiscovRx, Fremont, Calif.). Assay reactions were prepared by sequentially adding the following reagents to binding buffer (100 mM NaCl, 10 mM MgCl2, 20 mM HEPES, pH 7.4) on ice (final concentrations indicated): membrane protein (0.026 mg/mL), saponin ([…]), GDP ([…]) and [^35S]GTPγS (0.20 nM; Perkin Elmer, Shelton, Conn.). The prepared membrane solution (190 μl/well) was transferred to 96-shallow well polypropylene plates containing 10 μl of 20× concentrated stock solutions of the agonist [D-Ala^2, N-methyl-Phe^4 Gly-ol^5]-enkephalin (DAMGO) prepared in dimethyl sulfoxide (DMSO). Plates were incubated for 30 min at about 25° C. with shaking. Reactions were terminated by rapid filtration onto 96-well Unifilter GF/B filter plates (Perkin Elmer, Shelton, Conn.) using a 96-well tissue harvester (Perkin Elmer, Shelton, Conn.) followed by three filtration washes with 200 μl of ice-cold wash buffer (10 mM NaH2PO4, 10 mM Na2HPO4, pH 7.4). Filter plates were subsequently dried at 50° C. for 2-3 hours. BetaScint scintillation cocktail (Perkin Elmer, Shelton, Conn.) was added (50 μl/well) and plates were counted using a Packard Top-Count for 1 min/well. Data were analyzed using the sigmoidal dose-response curve fitting functions in GraphPad PRISM v. 3.0, or an in-house function for non-linear, sigmoidal dose-response curve-fitting.
(§6) μ-Opioid Receptor Functional Data: μ GTP EC50 is the concentration of a compound providing 50% of the maximal response for the compound at a μ-opioid receptor.
(§7) μ GTP Emax (%) is the maximal effect elicited by a compound relative to the effect elicited by DAMGO, a standard μ agonist. Generally, the μ GTP Emax (%) value measures the efficacy of a compound to treat or prevent pain or other Conditions.
(§8) In TABLE 2, activity response of certain Compounds of the Invention to the μ-, δ- and κ-opioid receptors was determined as described above for functional assays using HEK-293 or CHO cells.

[3] = target: T2, μ-opioid receptor; assay: μ-opioid receptor [35S]GTPγS functional assay, U-2 OS cells; format: biochemical; conditions: for EC50: GTPγS; for Emax: relative to DAMGO
Protocol: as §5, §6, §7, §4

[4] = target: T1, κ opioid receptor; assay: κ-opioid receptor [35S]GTPγS functional assay, HEK-293 or CHO cells; format: biochemical; conditions: for EC50: GTPγS; for Emax: relative to U69,593
Protocol: as §1, §2, §3, §8

[5] = target: recombinant human kappa opioid receptor (κ) (Homo sapiens (Human), UniProt P41145); assay: κ-opioid receptor radioligand dose-displacement binding assay ([3H]-U69,593)
Protocol: κ-Opioid Receptor Binding Assay Procedures: Membranes from HEK-293 cells, CHO or U-2 OS cells expressing the recombinant human kappa opioid receptor (κ) (cloned in house) were prepared by lysing cells in ice cold hypotonic buffer (2.5 mM MgCl2, 50 mM HEPES, pH 7.4) (10 mL/10 cm dish) followed by homogenization with a tissue grinder/Teflon pestle. Membranes were collected by centrifugation at 30,000×g for 15 min at 4° C. and pellets were resuspended in hypotonic buffer to a final concentration of 1-3 mg/mL. Protein concentrations were determined using the BioRad protein assay reagent with bovine serum albumen as standard. Aliquots of κ receptor membranes were stored at −80° C.
Radioligand dose displacement assays used 0.4 nM [^3H]-U69,593 (GE Healthcare, Piscataway, N.J.; 40 Ci/mmole) with 15 μg membrane protein (recombinant κ opioid receptor expressed in HEK 293 cells; in-house prep) in a final volume of 200 μl binding buffer (5% DMSO, 50 mM Trizma base, pH 7.4). Non-specific binding was determined in the presence of 10 μM unlabeled naloxone or U69,593. All reactions were performed in 96-well polypropylene plates for 1 hour at a temperature of about 25° C. Binding reactions were terminated by rapid filtration onto 96-well Unifilter GF/C filter plates (Perkin Elmer, Shelton, Conn.) presoaked in 0.5% polyethylenimine (Sigma). Harvesting was performed using a 96-well tissue harvester (Perkin Elmer, Shelton, Conn.) followed by five filtration washes with 200 μl ice-cold binding buffer. Filter plates were subsequently dried at 50° C. for 1-2 hours. Fifty μl/well scintillation cocktail (Perkin Elmer, Shelton, Conn.) was added and plates were counted in a Packard Top-Count for 1 min/well.
(§9) In TABLE 1, binding affinity of certain Compounds of the Invention to the μ-, δ- and κ-opioid receptors was determined as described above.

[6] = target: T2, μ-opioid receptor; assay: μ-opioid receptor radioligand dose-displacement binding assay ([3H]-diprenorphine)
Protocol: μ-Opioid Receptor Binding Assay Procedures: Radioligand dose-displacement binding assays for μ-opioid receptors used 0.3 nM [^3H]-diprenorphine (Perkin Elmer, Shelton, Conn.), with […] membrane protein/well in a final volume of 500 μl binding buffer (10 mM MgCl2, 1 mM EDTA, 5% DMSO, 50 mM HEPES, pH 7.4). Reactions were carried out in the absence or presence of increasing concentrations of unlabeled naloxone. All reactions were conducted in 96-deep well polypropylene plates for 2 hours at room temperature. Binding reactions were terminated by rapid filtration onto 96-well Unifilter GF/C filter plates (Perkin Elmer, Shelton, Conn.), presoaked in 0.5% polyethylenimine using a 96-well tissue harvester (Perkin Elmer, Shelton, Conn.) followed by performing three filtration washes with 500 μl of ice-cold binding buffer. Filter plates were subsequently dried at 50° C. for 2-3 hours. BetaScint scintillation cocktail (Perkin Elmer, Shelton, Conn.) was added (50 μl/well), and plates were counted using a Packard Top-Count for 1 min/well. The data were analyzed using the one-site competition curve fitting functions in GraphPad PRISM™ v. 3.0 or higher (San Diego, Calif.), or an in-house function for one-site competition curve-fitting.
as §9

SMILES | EC50 [1] [nM] | Emax [1] [%] | EC50 [2] [nM] | Emax [2] [%] | EC50 [3] [nM] | Emax [3] [%] | EC50 [4] [nM] | Emax [4] [%] | Ki [5] [nM] | Ki [6] [nM]
NC(=O)CN1CC[C@]23CCN(CC4CC4)[C@H](Cc4ccc(O)cc42)[C@@H]3C1 [Compound 11, 2-((4aS,5R,10bR)-13-(cyclopropylmethyl)-9-hydroxy-4,4-a,5,6-tetrahydro-1H-5,10b-(epiminoethano)benzo[f]isoquinolin-3(2H)-yl)acetamide] | 0.92 ± 0.15 | 102 ± 2.33 | 2.44 ± 0.76 | 87.2 | 2.41 ± 0.36 | 39.3 ± 3.28 | 5.25 ± 1.09 | 63 | 0.26 | –
COc1ccc2c(c1)[C@]13CCN(CC4CC4)[C@H](C2)[C@@H]1CNC(=O)C3 [Compound 3, (4aS,5R,10bS)-13-(cyclopropylmethyl)-9-methoxy-4,4-a,5,6-tetrahydro-1H-5,10b-(epiminoethano)benzo[f]isoquinolin-2(3H)-one] | – | – | 856 ± 48.7 | 62.7 | – | – | 435 ± 74 | 84 | 5.84 ± 0.59 | –
COc1ccc(CN2C=C3[C@H]4Cc5ccc(OC)cc5[C@@]3(CCN4CC3CC3)CC2=O)cc1 [Compound 2, (5R,10bR)-13-(cyclopropylmethyl)-9-methoxy-3-(4-methoxybenzyl)-5,6-dihydro-1H-5,10b-(epiminoethano)benzo[f]isoquinolin-2(3H)-one] | – | – | 268 ± 44 | 95.3 | – | – | 714 ± 256 | 68.8 | – | –
O=C1C[C@]23CCN(CC4CC4)[C@H](Cc4ccc(O)cc42)C3=CN1Cc1ccc(O)cc1 [Compound 6, (5R,10bR)-13-(cyclopropylmethyl)-9-hydroxy-3-(4-hydroxybenzyl)-5,6-dihydro-1H-5,10b-(epiminoethano)benzo[f]isoquinolin-2(3H)-one] | – | – | 57.5 ± 15.5 | 28 | – | – | 30.6 ± 6.75 | 41.7 | 1.27 ± 0.19 | 22.8 ± 8.32
COc1ccc(CN2CC[C@]34CCN(CC5CC5)[C@H](Cc5ccc(OC)cc53)[C@@H]4C2)cc1 [Compound 9, (4aS,5R,10bR)-13-(cyclopropylmethyl)-9-methoxy-3-(4-methoxybenzyl)-2,3,4,4a,5,6-hexahydro-1H-5,10b-(epiminoethano)benzo[f]isoquinoline] | – | – | 732 ± 70.1 | 89 | – | – | 1990 ± 339 | 46.7 | 204 ± 48.6 | –
Oc1ccc(CN2CC[C@]34CCN(CC5CC5)[C@H](Cc5ccc(O)cc53)[C@@H]4C2)cc1 [Compound 12, (4aS,5R,10bR)-13-(cyclopropylmethyl)-3-(4-hydroxybenzyl)-2,3,4,4a,5,6-hexahydro-1H-5,10b-(epiminoethano)benzo[f]isoquinolin-9-ol] | 6.51 ± 1.03 | 110 ± 2.73 | 6.87 ± 0.84 | 58 | 7.11 ± 2.99 | 47 ± 8.14 | 20.8 ± 2.53 | 54.3 | 0.98 ± 0.25 | –
COc1ccc2c(c1)[C@@]13CCNC[C@H]1[C@@H](C2)N(CC1CC1)CC3 [Compound 10, (4aS,5R,10bR)-13-(cyclopropylmethyl)-9-methoxy-2,3,4,4a,5,6-hexahydro-1H-5,10b-(epiminoethano)benzo[f]isoquinoline] | – | – | 2180 ± 394 | 66.7 | – | – | 2180 ± 562 | 71.3 | 37 ± 7.96 | –
O=C(O)CN1CC[C@]23CCN(CC4CC4)[C@H](Cc4ccc(O)cc42)[C@@H]3C1 [Compound 15, 2-((4aS,5R,10bR)-13-(cyclopropylmethyl)-9-hydroxy-4,4-a,5,6-tetrahydro-1H-5,10b-(epiminoethano)benzo[f]isoquinolin-3(2H)-yl)acetic acid] | 5.44 ± 0.39 | 108 ± 4.7 | 28.6 ± 9.31 | 53.3 | 20.8 ± 0.89 | 27 ± 3 | 55 ± 18.9 | 73.3 | 2.52 ± 0.97 | –
C[C@H](N)C(=O)N1CC[C@]23CCN(CC4CC4)[C@H](Cc4ccc(O)cc42)[C@@H]3C1 [Compound 14, (S)-2-amino-1-((4aS,5R,10bS)-13-(cyclopropylmethyl)-9-hydroxy-4,4-a,5,6-tetrahydro-1H-5,10b-(epiminoethano)benzo[f]isoquinolin-3(2H)-yl)propan-1-one] | 0.16 ± 0.025 | 104 ± 3.61 | 4.62 ± 1.55 | 82.7 | 9.82 ± 1.96 | 35.3 ± 4.18 | 1.98 ± 0.51 | 86 | 0.09 ± 0.02 | –
